Read-outs that look alike come from different tables or passages of the source.
Experiments:
[1] = Increasing effect on bone mass in OVX rats; format: in vivo
Procedure: 2 k PEG-[Cys^35]-PTH(1-35) was studied for the increasing effect on bone mass in OVX rats as follows. […] These samples were divided into aliquots and stored at −80° C. until use.
Female SD-IGS rats at 7 weeks of age (Charles River Japan, Inc.) were used, 60 of which were ovariectomized (OVX) to remove both ovaries and 7 of which were sham-operated. After 2 weeks, the ovariectomized rats were measured for their body weight and divided into groups of 6 rats each such that the mean body weights of all groups were identical.
Each drug was given subcutaneously at a dose of 1 ml/kg on a 5 times-a-week basis for 4 weeks. On the last day of administration, the rats were housed in metabolic cages and 24-hour urine was collected from each rat. On the following day, after the rats were euthanized by exsanguination under anesthesia, an autopsy was performed to collect blood, lumbar vertebrae and femurs. The urine and blood were taken into tubes and centrifuged to collect the respective supernatants, which were stored at −20° C. until assayed for parameters. The lumbar vertebrae and right femurs were stored in 70% ethanol. The average bone density of the second to fifth lumbar vertebrae and the bone density of the right femur were measured using a dual X-ray bone mineral densitometer (DCS-600EX, ALOKA).

human PTH1 receptors = biological target: T1, human PTH1 receptors (Homo sapiens, UniProt Q03431); assay: in vitro ability to produce cAMP, HKRK-B7 cells; format: cell-based; conditions: Table 2(1), n=2-3
T1 construct: expressed in transfected cells; host or cells: HKRK-B7 and HKRK-B64 cells (derived from pig kidney LLC-PK1 cells)
T1 sequence (Q03431 27-593): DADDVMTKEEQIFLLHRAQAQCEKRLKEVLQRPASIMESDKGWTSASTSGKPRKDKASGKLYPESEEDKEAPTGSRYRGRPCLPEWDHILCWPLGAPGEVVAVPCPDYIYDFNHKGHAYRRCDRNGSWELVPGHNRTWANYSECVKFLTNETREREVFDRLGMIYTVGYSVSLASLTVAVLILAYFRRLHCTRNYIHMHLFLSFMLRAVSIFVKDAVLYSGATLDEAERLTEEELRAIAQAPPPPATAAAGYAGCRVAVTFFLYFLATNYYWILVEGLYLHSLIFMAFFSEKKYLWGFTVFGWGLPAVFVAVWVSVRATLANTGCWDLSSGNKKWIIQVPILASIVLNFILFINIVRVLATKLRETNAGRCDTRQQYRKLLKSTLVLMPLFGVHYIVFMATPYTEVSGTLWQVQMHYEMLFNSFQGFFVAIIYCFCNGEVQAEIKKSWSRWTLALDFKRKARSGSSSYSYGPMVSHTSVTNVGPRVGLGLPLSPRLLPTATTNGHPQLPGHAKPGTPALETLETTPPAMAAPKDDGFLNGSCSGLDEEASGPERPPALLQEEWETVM
Procedure: Each PEG-PTH sample was assayed for its ability to produce cAMP (indicative of the increasing effect of PTH on bone mass) as follows. […] These cells were seeded in 96-well plates at 1×10^5 cells/well and incubated overnight. […] After removing the reaction solution, the plates were placed on powdered dry ice to freeze the cells and then removed from the dry ice. The cells were thawed with 50 μL of 50 mM HCl and frozen again on dry ice. The level of intracellular cAMP was determined with a commercially available EIA kit (Biotrak cAMP EIA system, Amersham).

[2] = clinical trial, cited from earlier work
[3] = Hypotensive effect in anesthetized rats; format: in vivo; conditions: sc
Procedure: The mono-methoxy 5 k PEG-PTH(1-34) prepared in Example 1(2) was also adjusted similarly to 36.5, 18.3 and 9.1 μg/mL (calculated as PTH(1-34)). The samples thus prepared were then stored on ice and restored to room temperature about 30 minutes before administration.
Female SD rats at 10 weeks of age (Charles River Japan, Inc.) were anesthetized by intraperitoneal administration of 50 mg/kg pentobarbital sodium (Abbott Laboratories). A catheter for blood pressure measurement and a catheter for anesthesia maintenance were inserted into the femoral artery and vein, respectively, of each rat. Anesthesia was maintained using a syringe pump (Terumo Corporation) to ensure continuous injection (at 22.5 mg/kg/hour) of pentobarbital sodium (powder form, Tokyo Kasei Kogyo Co., Ltd.) dissolved in physiological saline (Otsuka Pharmaceutical Co., Ltd.). On the other hand, each catheter for blood pressure measurement was filled with 100 U/mL heparin sodium (Novo Nordisk A/S) in physiological saline. To measure systemic blood pressure, a pressure transducer (Nihon Kohden Corporation) was connected to the catheter for blood pressure measurement and signals from the transducer were input to a blood pressure amplifier (Nihon Kohden Corporation). The resulting data were averaged for use as an indicator of systemic blood pressure. The output of systemic blood pressure was, in turn, input to a measuring unit for instantaneous heart rate (Nihon Kohden Corporation) to determine heart rate. These parameters were continuously recorded on a thermal pen recorder (Graphtec Corporation) at a speed of 5 mm/min. After surgery, an injection needle for administration of a test substance was inserted into the dorsal subcutaneous region of each rat. After each parameter had stabilized, test drugs were administered. […] This figure illustrates changes in blood pressure induced by administration of a negative control (buffer), 50 μg/kg hPTH (1-34) and 36.5 μg/kg 5 k PEG-PTH(1-34) in this order from the upper panel. In addition, the average value of blood pressure before PTH administration and the value at the maximum blood pressure drop after administration were measured for each case to determine the difference between these two values. […] The vertical axis represents the maximum blood pressure drop (mmHg) and the horizontal axis represents the amount of PTH administered.

[4] = clinical, single subcutaneous 20-40 μg, at 4 to 6 hours after administration; cited from earlier work

Compound	lumbar and femoral bone density, significance (in words) ([1]; OVX rats, 7.5, 30 and 120 nmol/kg sc, 4 weeks)	lumbar and femoral bone density (in words) ([1]; OVX rats, sc 5 times a week for 4 weeks)	Maximum cAMP response (human PTH1 receptors) [pmol/well]	EC50 (human PTH1 receptors; cAMP production) [nM]	nausea and headache as side effects (in words) ([2]; dose of 20 μg)	nausea and headache as side effects (in words) ([2]; dose of 40 μg)	hypotensive effect after administration (in words) ([3]; anesthetized female SD rats)	hypotensive effect over doses, maximum blood pressure drop (in words) ([3]; anesthetized rats, hPTH(1-34) 12.5-50 μg/kg, 5 k PEG-PTH(1-34) 9.1-36.5 μg/kg)	blood calcium levels (in words) [4]
2 k PEG-[Cys^35]-hPTH(1-35): [Cys^35]-PTH(1-35) conjugated with mPEG 2 k-MAL (2 kDa methoxy-PEG-maleimide) at the C-terminal cysteine (SVSEIQLMHNLGKHLNSMERVEWLRKKLQDVHNFC; Parathyroid hormone 2 kDa mPEG-maleimide at Cys35; UniProt P01270 32-66, looked up, variant V35C)	statistically-significant increases in both lumbar and femoral bone density	dose-dependent increases in lumbar and femoral bone density	109.3 ± 10.1	0.5	–	–	–	–	–
CC[C@H](C)[C@H](NC(=O)[C@H](CCC(=O)O)NC(=O)[C@H](CO)NC(=O)[C@@H](NC(=O)[C@@H](N)CO)C(C)C)C(=O)N[C@@H](CCC(N)=O)C(=O)N[C@@H](CC(C)C)C(=O)N[C@@H](CCSC)C(=O)N[C@@H](Cc1cnc[nH]1)C(=O)N[C@@H](CC(N)=O)C(=O)N[C@@H](CC(C)C)C(=O)NCC(=O)N[C@@H](CCCCN)C(=O)N[C@@H](Cc1cnc[nH]1)C(=O)N[C@@H](CC(C)C)C(=O)N[C@@H](CC(N)=O)C(=O)N[C@@H](CO)C(=O)N[C@@H](CCSC)C(=O)N[C@@H](CCC(=O)O)C(=O)N[C@@H](CCCN=C(N)N)C(=O)N[C@H](C(=O)N[C@@H](CCC(=O)O)C(=O)N[C@@H](Cc1c[nH]c2ccccc12)C(=O)N[C@@H](CC(C)C)C(=O)N[C@@H](CCCN=C(N)N)C(=O)N[C@@H](CCCCN)C(=O)N[C@@H](CCCCN)C(=O)N[C@@H](CC(C)C)C(=O)N[C@@H](CCC(N)=O)C(=O)N[C@@H](CC(=O)O)C(=O)N[C@H](C(=O)N[C@@H](Cc1cnc[nH]1)C(=O)N[C@@H](CC(N)=O)C(=O)N[C@@H](Cc1ccccc1)C(=O)O)C(C)C)C(C)C [hPTH(1-34), reference compound]	–	–	–	–	same frequency as observed in the placebo group	caused nausea and headache as side effects at a statistically significant level	strong hypotensive effect immediately after administration	dose-dependent hypotensive effect in the range of 12.5 μg/kg to 50 μg/kg	transient elevation of blood calcium levels

Reference: patent US20050148763A1, “Peg-binding pth or peg-binding pth derivative” (Chugai Seiyaku Kabushiki Kaisha, priority 2002, published 2005)
